AC50 data for five compounds are collected here from ChEMBL document CHEMBL5291721, “A preclinical secondary pharmacology resource illuminates target-adverse drug reaction associations of marketed drugs” (Nat Commun, 2023).

SMILES strings stand for the structures.

Test [1] addresses T1, Type-1 angiotensin II receptor (Homo sapiens, UniProt P30556).
T1 sequence (P30556 whole entry): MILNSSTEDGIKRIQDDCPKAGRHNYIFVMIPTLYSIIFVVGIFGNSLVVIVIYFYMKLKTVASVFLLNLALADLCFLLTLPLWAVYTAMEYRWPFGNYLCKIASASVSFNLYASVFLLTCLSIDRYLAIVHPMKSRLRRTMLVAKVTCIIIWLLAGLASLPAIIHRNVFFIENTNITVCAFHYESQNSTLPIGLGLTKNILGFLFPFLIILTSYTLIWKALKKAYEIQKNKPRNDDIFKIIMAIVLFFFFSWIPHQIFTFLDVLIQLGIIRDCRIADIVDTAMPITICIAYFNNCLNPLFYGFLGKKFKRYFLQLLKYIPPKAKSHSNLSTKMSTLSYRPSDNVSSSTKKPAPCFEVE

Test [2] addresses T2, Type-2 angiotensin II receptor (Homo sapiens, UniProt P50052).
T2 sequence (P50052 whole entry): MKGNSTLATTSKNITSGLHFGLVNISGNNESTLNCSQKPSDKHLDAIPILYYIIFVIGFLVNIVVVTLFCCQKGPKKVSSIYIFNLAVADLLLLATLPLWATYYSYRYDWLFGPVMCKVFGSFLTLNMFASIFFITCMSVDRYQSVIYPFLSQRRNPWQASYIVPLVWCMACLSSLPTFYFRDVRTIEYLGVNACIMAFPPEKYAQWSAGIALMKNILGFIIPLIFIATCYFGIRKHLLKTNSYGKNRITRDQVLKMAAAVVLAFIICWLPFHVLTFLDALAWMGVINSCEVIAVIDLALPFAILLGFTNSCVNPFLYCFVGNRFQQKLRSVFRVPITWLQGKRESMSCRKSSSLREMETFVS
The test is classed as functional.

For test [3], the target named is T3, 5-hydroxytryptamine receptor 1A (Homo sapiens, UniProt P08908).
T3 sequence (P08908 whole entry): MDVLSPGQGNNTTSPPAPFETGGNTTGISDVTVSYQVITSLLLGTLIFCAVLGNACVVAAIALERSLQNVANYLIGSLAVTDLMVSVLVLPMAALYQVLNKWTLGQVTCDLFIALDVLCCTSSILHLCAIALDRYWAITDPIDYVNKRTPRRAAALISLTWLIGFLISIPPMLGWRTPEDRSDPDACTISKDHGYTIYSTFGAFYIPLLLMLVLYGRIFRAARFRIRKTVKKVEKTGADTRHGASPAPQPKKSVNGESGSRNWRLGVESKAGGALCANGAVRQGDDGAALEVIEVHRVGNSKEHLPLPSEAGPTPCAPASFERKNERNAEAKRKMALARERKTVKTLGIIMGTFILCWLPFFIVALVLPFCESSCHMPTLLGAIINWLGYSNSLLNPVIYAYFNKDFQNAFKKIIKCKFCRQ

The target of test [4] is Oxysterols receptor LXR-beta (Homo sapiens, UniProt P55055). The test is classed as functional.
The target of test [5] is Oxysterols receptor LXR-alpha (Homo sapiens, UniProt Q13133). The test is classed as functional.
In test [6] the target is Retinoic acid receptor alpha (Homo sapiens, UniProt P10276). The class given is functional, cell-based.
Test [7] addresses Retinoic acid receptor beta (Homo sapiens, UniProt P10826). The class given is functional, cell-based.
Test [8] deals with Retinoic acid receptor gamma (Homo sapiens, UniProt P13631). The class given is functional, cell-based.
Test [9] addresses T4, Muscarinic acetylcholine receptor M2 (Homo sapiens, UniProt P08172).
T4 sequence (P08172 whole entry): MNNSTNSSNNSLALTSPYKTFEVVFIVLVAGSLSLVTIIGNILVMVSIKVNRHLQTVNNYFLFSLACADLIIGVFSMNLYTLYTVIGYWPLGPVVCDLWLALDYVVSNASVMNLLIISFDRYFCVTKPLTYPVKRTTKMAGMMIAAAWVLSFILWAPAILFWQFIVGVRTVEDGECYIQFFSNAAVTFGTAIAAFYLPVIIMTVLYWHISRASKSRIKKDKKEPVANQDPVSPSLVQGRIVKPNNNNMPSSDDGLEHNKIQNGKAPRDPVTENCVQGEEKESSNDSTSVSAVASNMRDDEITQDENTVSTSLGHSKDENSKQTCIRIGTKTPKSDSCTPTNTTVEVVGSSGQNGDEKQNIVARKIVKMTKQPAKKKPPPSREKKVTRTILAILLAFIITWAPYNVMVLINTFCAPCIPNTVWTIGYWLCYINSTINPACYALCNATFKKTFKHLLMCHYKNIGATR

For test [10], the target named is T5, Muscarinic acetylcholine receptor M1 (Homo sapiens, UniProt P11229).
T5 sequence (P11229 whole entry): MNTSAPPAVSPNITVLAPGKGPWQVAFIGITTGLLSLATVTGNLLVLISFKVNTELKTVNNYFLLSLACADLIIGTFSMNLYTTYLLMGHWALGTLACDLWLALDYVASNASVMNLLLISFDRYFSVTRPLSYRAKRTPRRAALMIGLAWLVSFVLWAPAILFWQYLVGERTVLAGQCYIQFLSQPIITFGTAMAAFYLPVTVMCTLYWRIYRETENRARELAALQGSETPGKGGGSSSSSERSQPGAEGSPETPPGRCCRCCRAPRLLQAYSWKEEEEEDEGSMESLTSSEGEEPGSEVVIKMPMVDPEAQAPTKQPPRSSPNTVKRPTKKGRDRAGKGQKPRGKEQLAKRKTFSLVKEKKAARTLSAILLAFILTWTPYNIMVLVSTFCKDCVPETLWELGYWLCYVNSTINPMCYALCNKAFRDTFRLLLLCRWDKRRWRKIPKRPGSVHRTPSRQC
The test is classed as functional, cell-based.
Also: assay procedure not described here.

Chain of Retinoic acid receptor alpha (P10276 whole entry): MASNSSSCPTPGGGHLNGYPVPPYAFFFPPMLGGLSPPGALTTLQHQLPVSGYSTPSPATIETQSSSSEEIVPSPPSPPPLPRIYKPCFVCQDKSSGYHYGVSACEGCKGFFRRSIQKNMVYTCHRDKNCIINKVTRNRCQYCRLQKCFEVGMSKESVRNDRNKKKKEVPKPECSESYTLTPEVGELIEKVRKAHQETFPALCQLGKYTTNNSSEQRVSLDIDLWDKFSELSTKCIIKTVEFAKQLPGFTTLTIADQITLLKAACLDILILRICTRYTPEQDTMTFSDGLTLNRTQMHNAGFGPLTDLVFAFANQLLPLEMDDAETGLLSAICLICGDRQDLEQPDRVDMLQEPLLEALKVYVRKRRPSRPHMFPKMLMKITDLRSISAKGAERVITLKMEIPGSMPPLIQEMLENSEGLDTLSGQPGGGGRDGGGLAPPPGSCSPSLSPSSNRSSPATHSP
Chain of Retinoic acid receptor beta (P10826 whole entry): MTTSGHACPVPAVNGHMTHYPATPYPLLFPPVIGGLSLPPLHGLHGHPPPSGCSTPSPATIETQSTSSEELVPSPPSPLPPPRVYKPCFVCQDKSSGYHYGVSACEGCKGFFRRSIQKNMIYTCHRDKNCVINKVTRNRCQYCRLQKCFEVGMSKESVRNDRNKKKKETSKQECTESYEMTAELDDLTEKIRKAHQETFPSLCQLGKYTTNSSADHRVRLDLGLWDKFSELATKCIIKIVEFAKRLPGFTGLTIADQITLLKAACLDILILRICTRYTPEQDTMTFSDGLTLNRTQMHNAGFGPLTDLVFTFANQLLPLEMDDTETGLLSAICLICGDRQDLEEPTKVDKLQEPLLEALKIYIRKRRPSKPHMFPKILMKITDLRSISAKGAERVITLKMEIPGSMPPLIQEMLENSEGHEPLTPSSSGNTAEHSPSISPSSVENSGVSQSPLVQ
Chain of Oxysterols receptor LXR-beta (P55055 whole entry): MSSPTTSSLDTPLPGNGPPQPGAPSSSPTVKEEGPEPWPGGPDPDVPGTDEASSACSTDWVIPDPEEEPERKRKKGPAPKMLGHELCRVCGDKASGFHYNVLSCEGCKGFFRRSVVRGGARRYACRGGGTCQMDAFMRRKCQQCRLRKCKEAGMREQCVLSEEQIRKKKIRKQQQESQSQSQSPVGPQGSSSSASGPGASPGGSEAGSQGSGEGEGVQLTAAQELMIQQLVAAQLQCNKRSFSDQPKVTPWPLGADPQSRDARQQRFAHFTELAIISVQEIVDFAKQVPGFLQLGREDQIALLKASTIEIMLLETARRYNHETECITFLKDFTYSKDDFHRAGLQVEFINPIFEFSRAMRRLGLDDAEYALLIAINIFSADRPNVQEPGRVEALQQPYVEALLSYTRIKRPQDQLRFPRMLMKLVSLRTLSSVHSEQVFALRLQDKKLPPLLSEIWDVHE
Chain of Oxysterols receptor LXR-alpha (Q13133 whole entry): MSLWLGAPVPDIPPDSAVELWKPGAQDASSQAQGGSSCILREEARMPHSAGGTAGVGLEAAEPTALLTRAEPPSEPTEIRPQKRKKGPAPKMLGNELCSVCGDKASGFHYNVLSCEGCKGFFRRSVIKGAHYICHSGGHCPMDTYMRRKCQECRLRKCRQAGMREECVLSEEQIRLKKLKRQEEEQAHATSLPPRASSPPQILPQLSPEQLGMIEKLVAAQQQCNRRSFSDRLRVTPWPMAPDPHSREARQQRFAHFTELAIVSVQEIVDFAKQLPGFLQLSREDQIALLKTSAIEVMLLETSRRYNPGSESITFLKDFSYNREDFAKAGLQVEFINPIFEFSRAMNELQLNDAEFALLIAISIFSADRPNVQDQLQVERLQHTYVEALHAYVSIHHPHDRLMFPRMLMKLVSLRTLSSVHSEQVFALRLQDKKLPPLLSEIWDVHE
Chain of Retinoic acid receptor gamma (P13631 whole entry): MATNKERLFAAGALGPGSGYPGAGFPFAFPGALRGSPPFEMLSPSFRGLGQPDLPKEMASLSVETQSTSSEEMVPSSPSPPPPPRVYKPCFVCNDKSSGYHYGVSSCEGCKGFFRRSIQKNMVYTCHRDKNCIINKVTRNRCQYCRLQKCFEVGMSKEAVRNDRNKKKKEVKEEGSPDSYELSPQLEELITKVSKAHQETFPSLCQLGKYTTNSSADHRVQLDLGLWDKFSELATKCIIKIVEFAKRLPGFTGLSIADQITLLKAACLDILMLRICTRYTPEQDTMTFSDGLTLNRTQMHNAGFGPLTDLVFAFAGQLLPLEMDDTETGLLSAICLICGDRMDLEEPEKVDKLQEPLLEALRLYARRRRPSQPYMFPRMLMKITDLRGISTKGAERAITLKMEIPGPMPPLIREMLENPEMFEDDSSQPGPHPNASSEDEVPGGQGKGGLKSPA

The term AC50 denotes the midpoint of the concentration-response curve, whichever way the signal moves. For the compound `CCOc1nc2cccc(C(=O)O)c2n1Cc1ccc(-c2ccccc2-c2nnn[nH]2)cc1`, in test [1], the AC50 came out at 0.0004 µM.

In test [2], `O=C(O)Cc1ccccc1Nc1c(Cl)cccc1Cl` [DICLOFENAC] had an AC50 of 85 µM.

As to `CC[C@@H](CO)NC(=O)[C@@H]1C=C2c3cccc4c3c(cn4C)C[C@H]2N(C)C1` [METHYSERGIDE], half-maximal activity in test [3] (AC50) was put at 0.17 µM.

Turning to `COc1cc(C(=O)NS(=O)(=O)c2ccccc2C)ccc1Cc1cn(C)c2ccc(NC(=O)OC3CCCC3)cc12` [ZAFIRLUKAST], the AC50 in test [4], in test [5], in [6], in test [7] and in test [8] was greater than 30 µM each time.

Take `O=C1Cc2cc(CCN3CCN(c4nsc5ccccc45)CC3)c(Cl)cc2N1` [ZIPRASIDONE]: the results for the AC50 in test [9] and in test [10] were 6.3 µM and 20 µM, respectively.
